Read-outs that look alike come from different tables or passages of the source.
Columns and labels:
[1] = tested on: (S)-adenosyl-L-methionine: Δ^24-sterol methyl transferase (SMT); assay: Effect of substrate and transition state analog inhibitors on soluble SMT enzyme from 4-day seedlings; assay type: biochemical, Zea mays (corn); details: for Ki: soluble SMT, 4-day seedlings, NA = no inhibition
yeast SMT enzyme = target: T1, yeast SMT enzyme (Saccharomyces cerevisiae, UniProt P25087); assay: Substrate preference / binding of yeast SMT (ERG6 product); assay type: biochemical
T1 construct: made in house; host or cells: E. coli, pET23a(+)
T1 sequence (P25087 1-383): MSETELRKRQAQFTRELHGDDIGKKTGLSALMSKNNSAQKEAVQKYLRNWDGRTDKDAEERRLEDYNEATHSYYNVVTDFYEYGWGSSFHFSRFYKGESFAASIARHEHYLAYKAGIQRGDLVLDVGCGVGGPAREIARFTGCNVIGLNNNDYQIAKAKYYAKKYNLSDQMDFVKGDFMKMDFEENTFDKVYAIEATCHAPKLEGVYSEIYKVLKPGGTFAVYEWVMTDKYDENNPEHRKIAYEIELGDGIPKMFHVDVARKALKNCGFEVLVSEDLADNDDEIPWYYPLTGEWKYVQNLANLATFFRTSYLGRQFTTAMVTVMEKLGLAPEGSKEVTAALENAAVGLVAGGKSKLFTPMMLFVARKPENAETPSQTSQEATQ
Description: The cloned ERG6 gene was expressed in E. coli (Venkatramesh et al., 1996).

[2] = tested on: (S)-adenosyl-L-methionine: Δ^24-sterol methyl transferase (SMT); assay: Sterol specificity (substrate methylation) of SMT enzyme from 4-day corn seedlings; assay type: biochemical, Zea mays (corn); details: for % Activity, relative to cycloartenol methylation: soluble SMT; for Enzyme Activity: soluble SMT from corn seedlings, BG = background
Procedure: The sterol specificity of the microsome-bound and soluble SMT enzyme from 4-day corn seedlings was determined in order to elucidate the enzymatic basis for the plant sterols identified in Example 1.

[3] = tested on: 3-hydroxy-3-methylglutaryl-coenzyme A reductase (HMGR); assay: Microsomal HMGR activity during seedling development; assay type: biochemical, corn; parameters: dose or concentration left out as unconfirmed
Arabidopsis SMT = target: T2, Arabidopsis SMT (Arabidopsis thaliana, UniProt Q39227); assay: Sterol transformation by recombinant Arabidopsis SMT expressed in E. coli; assay type: biochemical; details: recombinant fusion protein
T2 construct: The full-length ORF containing a Nde 1 site at the start; His-tag; made in house; host or cells: E. coli, pET23a(+)
T2 sequence (Q39227 1-361): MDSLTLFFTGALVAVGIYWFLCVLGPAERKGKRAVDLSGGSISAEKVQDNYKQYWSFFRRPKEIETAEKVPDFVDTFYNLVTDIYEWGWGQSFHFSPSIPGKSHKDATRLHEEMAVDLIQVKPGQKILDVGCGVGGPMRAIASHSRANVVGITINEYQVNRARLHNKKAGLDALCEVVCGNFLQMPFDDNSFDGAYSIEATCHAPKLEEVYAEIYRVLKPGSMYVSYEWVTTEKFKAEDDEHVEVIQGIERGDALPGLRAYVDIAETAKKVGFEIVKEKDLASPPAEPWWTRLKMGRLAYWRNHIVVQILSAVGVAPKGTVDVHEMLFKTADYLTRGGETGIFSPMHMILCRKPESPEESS
Description: The SMT gene from Arabidopsis was cloned and sequenced (FIG. 6; SEQ ID NO:3). This gene containing a His-tag was overexpressed in E. coli (Tong et al., 1997). Arabidopsis SMT was partially purified and characterized in stereochemical detail.
The Arabidopsis SMT gene was amplified by PCR from a cDNA library. The primers used were designed from the full-length cDNA sequence retrieved from the GeneBank (Accession number X89867). The amplified product was the full-length Arabidopsis SMT gene which was sub-cloned into a T/A cloning vector and sequenced. From the sequence data the ORF was identified. A Nde I site was created at the ATG start codon through PCR mediated site-directed mutagenesis. The full-length ORF containing a Nde 1 site at the start and a BamH I site at the stop was cloned into the pET23a(+) vector just as the ERG6 gene was in Example 4. […] In the case of cycloartenol only one product was formed, which is 24(28)-methylene cycloartanol, i.e., SMTI in FIG. 4. Since a single gene product was able to metabolize both sterol substrates it further confirms the enzymological data in Example 3.

[4] = tested on: yeast sterol auxotroph, GL-7; assay: Growth support of yeast sterol auxotroph GL-7 cultured with test sterols; assay type: cell-based; details: sterol added to culture medium
Procedure: The phytosterols identified in Example 1 were tested individually for their ability to support growth. In the absence of a plant sterol mutant for such studies the yeast sterol auxotroph, GL-7, was cultured in the presence of sterols identified according to Example 1, above (Li, 1996). This yeast mutant is used as a model system because it can take up sterols from the culture medium and incorporate the test sterol into the membrane lipid bilayer and proliferate. The amount of proliferation of the cells was measured in the presence and absence of hormonal levels of ergosterol, the major yeast sterol.

Heliothis zea = assay: Sterol utilization and metabolism by Heliothis zea reared on artificial diet with sterol supplement; details: for Utilization by H. zea / support of larval growth and development (words): test sterol as sole added dietary sterol; for Sterol composition (as % total sterol): ts: insect tissues, RP-HPLC and GC-MS
Procedure: Heliothis zea (corn earworm) was reared on an artificial diet treated with different sterol supplements to study the relation between sterol structure and utilization in insects. H. zea eggs were used to establish a disease-free stock colony.
The stock insects were reared using sterile procedures on a pinto bean-based diet. Moths were fed 10% sucrose. Cultures were maintained at 27±1° C., at 40±10% relative humidity on a 14:10 light-dark photoperiod and an artificial diet was used to rear the insects on different sterol supplements. The experimental diet contained agar, which is known to contain trace contamination of cholesterol, otherwise the experimental diet was sterol-free.
Sterols were solubilized in acetone. Aliquots of the solutions were added to the sterol-free diet in a mortar, the material mixed thoroughly with the diet, and the organic solvent allowed to evaporate. Sterols were supplied to the medium at 200 ppm (equivalent to 1 mg of sterol per experimental vessel containing one insect).
By day 20, H. zea larva are in the final stage of larval development (sixth instar), after which the insects may pupate. A single neonate larva was placed in an experimental culture vial and allowed to grow for 20 days. The fresh weight, length and instar stage of 20-day larva were recorded.
In some treatments, the larvae were allowed to grow for another 4 days to determine whether they could pupate properly and develop into moth forms.
These fatty alcohols may comigrate with sterols during some forms of chromatography and interfere with sterol quantitation, particularly of cholesterol. Therefore, in order to confirm the identity and amount of cholesterol in the insect an aliquot of the NSF was injected into a HPLC column and the fraction corresponding to cholesterol was examined by GC-MS.

SMT = assay: Substrate preference of SMT in microsome preparations of P. wickerhamii; assay type: biochemical, Prototheca wickerhamii
Description: However, the preferred product is not 24(28)-methylene cycloartenol but cyclolaudenol (VII) which is a Δ^25(27)-24-alkyl sterol, a nonutilizable sterol.

[5] = tested on: serum and/or plasma total cholesterol and low density lipoprotein (LDL) cholesterol; details: comparison of phytosterol structures; cited from earlier work
[6] = read-out: Ki relative to the first methyl transfer
[7] = Table 11, sterol 200 ppm in diet
[8] = Table 11, sterol 200 ppm in diet, 20-day larvae, relative to growth on cholesterol normalized to 100%
[9] = substrates marked (C1), first methyl transfer

26,27-Cyclopropylidene cycloartenol
Ki [1, 6]: 25 µM
Effect on the second methyl transfer ([1]; soluble corn SMT): not affecting the second methyl transfer
Type of inhibition / kinetic pattern ([1]; soluble corn SMT): potent competitive inhibitor
Substrate preference / binding to yeast SMT (words) (yeast SMT enzyme): failed to bind to the yeast SMT enzyme

C=C(CCC(C)C1CCC2(C)C3CCC4C(C)(C)C(O)CCC45CC35CCC12C)C(C)C (centres unmarked) [24(28)-Methylene cycloartanol]
% Activity, relative to cycloartenol methylation ([2]; (C2), second methyl transfer): 0 (C2) %
Ki [1, 6]: 20 µM
Effect on the second methyl transfer ([1]; soluble corn SMT): failed to inhibit the second methyl transfer
Effect on HMGR activity [3]: neither sitosterol nor 24(28)-methylene cycloartanol at 100 mM affected HMGR activity

C=C(CC[C@@H](C)[C@H]1CC[C@H]2C3=CCC4C(C)C(O)CC[C@]4(C)[C@H]3CC[C@]12C)C(C)C (some centres unmarked) [24(28)-Methylenelophenol]
Vmax ([2]; second transmethylation): 1 pmol/min/mg protein
Enzyme Activity ([2]; substrates marked (C2), second methyl transfer): 3,800 dpm/min
% Activity, relative to cycloartenol methylation ([2]; (C2), second methyl transfer): 10 (C2) %
Substrate quality for corn SMT ([2]; soluble enzyme): preferred sterol substrate for the second methylation reaction
Km ([2]; sterol substrate of the second transmethylation, read-out: Km): 11 µM
Transformation by recombinant Arabidopsis SMT (Arabidopsis SMT): active in transforming both cycloartenol and 24(28)-methylene lophenol to their respective alkyl products

CC(C)CCC[C@@H](C)[C@H]1CC[C@H]2[C@@H]3CC=C4C[C@@H](O)CC[C@]4(C)[C@H]3CC[C@]12C [Cholesterol]
Effect on growth of GL-7 [4]: without affecting the rate of growth of the cells
Dietary concentration that enhanced the rate of development of larvae (Heliothis zea; % of diet): ≥ 0.015%
Minimal dietary concentration necessary for larvae to grow and pupate (Heliothis zea; % of the experimental diet): 0.01%
Instar reached by day 20 (Heliothis zea; [7]): 6
Growth response (Heliothis zea; [8]): 100%
Growth response (Heliothis zea; Table 12, cholesterol / 24,25-dihydrolanosterol mixtures in diet): 100
Instar reached by day 20 (Heliothis zea; Table 12, sterol mixtures): 6
Sterol composition (as % total sterol): cholesterol (Heliothis zea; Table 12, sterol recovered from insect): (100%)
Utilization by H. zea / support of larval growth and development (words) (Heliothis zea): supported larval growth to late-sixth instar

CC(C)=CCC[C@@H](C)[C@H]1CC[C@@]2(C)[C@@H]3CC[C@H]4C(C)(C)[C@@H](O)CC[C@@]45C[C@@]35CC[C@]12C [Cycloartenol, cycloartenol]
Vmax ([2]; first transmethylation): 4 pmol/min/mg protein
Substrate quality for corn SMT ([2]; microsome-bound enzyme system): preferred sterol acceptor
Enzyme Activity [2, 9]: 37,515 dpm/min
% Activity, relative to cycloartenol methylation ([2]; (C1), first methyl transfer): 100 (C1) %
Substrate quality for corn SMT ([2]; soluble enzyme): preferred substrate for the first methylation reaction
Transformation by recombinant Arabidopsis SMT (Arabidopsis SMT): active in transforming both cycloartenol and 24(28)-methylene lophenol to their respective alkyl products
Substrate preference of P. wickerhamii SMT (SMT): preferred substrate
Instar reached by day 20 (Heliothis zea; [7]): 3
Growth response (Heliothis zea; [8]): 5%
Utilization by H. zea / support of larval growth and development (words) (Heliothis zea): inhibit insect growth
Utilization by H. zea / support of larval growth and development (words) (Heliothis zea; listed as cycloartenol): could not be met satisfactorily

CC(C)[C@@H](C)/C=C/[C@@H](C)[C@H]1CC[C@H]2C3=CC=C4C[C@@H](O)CC[C@]4(C)[C@H]3CC[C@]12C [Ergosterol]
Effect on growth of GL-7 [4]: sparking growth
Sterol composition (as % total sterol): ts (Heliothis zea; Table 11): 36%
Instar reached by day 20 (Heliothis zea; [7]): 3
Growth response (Heliothis zea; [8]): 30%

CCC(CCC(C)C1CCC2C3CC=C4CC(O)CCC4(C)C3CCC12C)C(C)C (centres unmarked) [Sitosterol, sitosterol]
Ki, second methyl transfer [1]: 100 µM
Ki ([1]; read-out: Ki relative to the second methyl transfer): 100 µM
Effect on the first methyl transfer ([1]; soluble corn SMT): without affecting the first methyl transfer
Effect on HMGR activity [3]: neither sitosterol nor 24(28)-methylene cycloartanol at 100 mM affected HMGR activity
Effect on growth of GL-7 [4]: without affecting the rate of growth of the cells
Sterol composition (as % total sterol): ts (Heliothis zea; Table 11): 20%
Instar reached by day 20 (Heliothis zea; [7]): 6
Growth response (Heliothis zea; [8]): 100%
Utilization by H. zea / support of larval growth and development (words) (Heliothis zea): supported larval growth to late-sixth instar

CC(C)=CCC[C@@H](C)[C@H]1CC[C@H]2C3=C(CC[C@]12C)[C@@]1(C)CC[C@H](O)C[C@@H]1CC3 [Zymosterol]
Enzyme Activity [2, 9]: 5,252 dpm/min
% Activity, relative to cycloartenol methylation ([2]; (C1), first methyl transfer): 14 (C1) %
Substrate quality for corn SMT ([2]; soluble enzyme): poor sterol substrate of the first methylation reaction
Substrate preference / binding to yeast SMT (words) (yeast SMT enzyme): preferred sterol substrate of yeast SMT enzyme
Substrate preference / binding to yeast SMT (words) (yeast SMT enzyme; listed as zymosterol): preferred substrate of the yeast SMT

CC[C@H](CC[C@@H](C)[C@H]1CC[C@H]2[C@@H]3CC[C@H]4C[C@@H](O)CC[C@]4(C)[C@H]3CC[C@]12C)C(C)C [sitostanol]
Reduction of cholesterol levels [5]: more efficient compared to unsaturated compounds such as sitosterol in reducing cholesterol levels

Source: patent US20020148006A1, “Transgenic plants with modified sterol compositions” (Asgrow Seed Company, L.L.C., priority 1996, published 2002)
